According to US5925769A, “Acetylenic 1,5-diarylpyrazoles as antiinflammatory agents” (Ortho Pharmaceutical, Corp., priority 1998, dated 1999):

Legend:
CO [1] = molecular target: T1, CO (Rattus norvegicus, UniProt Q63921); assay: Procedure III: CO (PgD2) in intact RBL-1 cells; format: cell-based; details: calcium ionophore A 23187, read-out: Proc. III CO IC50
T1 construct: the supernatant was saved as the source of enzymes; endogenous in cells; host or cells: RBL-1 (rat basophilic leukemia) cells
T1 sequence (Q63921 27-602): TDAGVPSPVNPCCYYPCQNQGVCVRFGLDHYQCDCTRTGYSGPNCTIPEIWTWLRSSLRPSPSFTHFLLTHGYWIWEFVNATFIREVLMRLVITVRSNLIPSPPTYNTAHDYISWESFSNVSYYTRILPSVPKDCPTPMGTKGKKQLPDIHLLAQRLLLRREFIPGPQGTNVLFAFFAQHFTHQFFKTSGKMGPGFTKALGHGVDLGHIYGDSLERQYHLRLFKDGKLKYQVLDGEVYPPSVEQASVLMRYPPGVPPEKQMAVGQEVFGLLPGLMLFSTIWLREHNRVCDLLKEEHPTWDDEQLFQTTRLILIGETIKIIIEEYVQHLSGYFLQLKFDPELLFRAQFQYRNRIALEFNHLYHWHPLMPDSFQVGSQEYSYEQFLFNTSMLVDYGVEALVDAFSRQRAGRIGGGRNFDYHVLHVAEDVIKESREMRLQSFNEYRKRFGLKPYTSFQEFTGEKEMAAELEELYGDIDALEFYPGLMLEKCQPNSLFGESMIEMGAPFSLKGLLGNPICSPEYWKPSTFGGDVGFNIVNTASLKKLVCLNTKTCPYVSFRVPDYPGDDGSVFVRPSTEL
In short: (§1)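 Intact RBL-1 cells at 1×10^5 cells/mL in HBSS were preincubated with vehicle or drug, pelleted and resuspended, then given 1-^14C-AA. 5-HETE (5-LO) and PgD2 (CO) were separated by TLC after acidification/extraction and quantified by radioimaging; IC50 from regression curve fit.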

5-LO [2] = assay: Procedure IV: ex vivo eicosanoid synthesis assay using dogs, 5-LO (LTB4); format: in vivo; details: dog, oral, 5 mg/kg
Procedure: (§2) Adult beagle or mongrel dogs (10-15 kg) of either sex were fasted overnight prior to the initiation of each experiment. The forelimb was clipped and swabbed with an alcohol prep (70% isopropanol). Blood was drawn by venipuncture into syringes containing lithium heparin (Starstead, Newton, N.C.) immediately prior to administration of compound or vehicle and then at various intervals following dosing. The test compound was administered orally as a suspension in 0.5% methocel. At various times after dosing, blood samples were drawn and placed on an electric rocker platform to assure complete and continuous mixing. White blood cell (wbc) counts were performed using a Sysmex hematology analyzer. This was done in an effort to normalize the number of leukocytes to be stimulated with calcium ionophore. A 1.0 mL aliquot of whole blood was challenged with 50 μL of a 2.6×10^-5 M solution of calcium ionophore A23187 (Calbiochem, La Jolla, Calif.) prepared in DMSO and diluted in HBSS. After a 15 minute incubation at 37° C., the reaction was stopped by placing the samples in an ice bath (4° C.) for 5 minutes and then centrifuging at 11,000×g for 5 minutes to separate the plasma fraction from blood cells. The plasma fraction was removed, diluted in an appropriate buffer, and analyzed for the presence of LTB4 and TxB2 by standard RIA techniques.

5-LO [3] = molecular target: T2, 5-LO (Rattus norvegicus, UniProt P12527); assay: Procedure III: 5-LO (5-HETE) in intact RBL-1 cells; format: cell-based; details: calcium ionophore A 23187, read-out: Proc. III 5-LO IC50
T2 construct: the supernatant was saved as the source of enzymes; endogenous in cells; host or cells: RBL-1 (rat basophilic leukemia) cells
T2 sequence (P12527 1-673): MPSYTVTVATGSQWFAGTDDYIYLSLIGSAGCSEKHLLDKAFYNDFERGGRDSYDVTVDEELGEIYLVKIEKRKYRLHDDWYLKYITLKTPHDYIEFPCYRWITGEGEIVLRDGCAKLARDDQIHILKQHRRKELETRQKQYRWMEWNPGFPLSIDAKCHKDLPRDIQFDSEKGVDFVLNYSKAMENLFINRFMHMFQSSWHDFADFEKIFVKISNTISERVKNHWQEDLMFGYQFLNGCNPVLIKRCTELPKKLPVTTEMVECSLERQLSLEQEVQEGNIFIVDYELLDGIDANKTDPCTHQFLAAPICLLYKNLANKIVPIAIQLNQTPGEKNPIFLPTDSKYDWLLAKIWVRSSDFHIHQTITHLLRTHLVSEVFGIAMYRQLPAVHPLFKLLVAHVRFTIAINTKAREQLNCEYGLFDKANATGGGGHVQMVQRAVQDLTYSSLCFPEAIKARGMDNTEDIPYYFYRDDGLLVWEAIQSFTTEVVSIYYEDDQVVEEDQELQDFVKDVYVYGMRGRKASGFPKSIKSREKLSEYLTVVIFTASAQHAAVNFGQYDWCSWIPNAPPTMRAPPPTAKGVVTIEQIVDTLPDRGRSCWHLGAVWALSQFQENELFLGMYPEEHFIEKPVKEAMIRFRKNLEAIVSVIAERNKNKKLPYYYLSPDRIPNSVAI
In short: as §1

CO [4] = assay: Procedure IV: ex vivo eicosanoid synthesis assay using dogs, CO (TxB2); format: in vivo; details: dog, oral, 5 mg/kg
Procedure: as §2

Compound: COc1ccc(-n2nc(C#CCN(O)C(N)=O)cc2-c2ccc(C)cc2)cc1 [Cpd 1, N-Hydroxy-N-(1(1-(4-methoxyphenyl)-5-(4-methylphenyl)pyrazol-3-yl)-1-propyn-3-yl)urea]
- IC50 (CO [1]): 12.1 µM
- % inh 5-LO (5-LO [2]; 1 h): 56%
- % inh 5-LO (5-LO [2]; 2 h): 53%
- % inh 5-LO (5-LO [2]; 4 h): 32%
- % inh 5-LO (5-LO [2]; 8 h): 15%
- % inh 5-LO (5-LO [2]; 24 h): 10%
- IC50 (5-LO [3]): 4.7 µM
- % inh CO (CO [4]; 1 h): 86%
- % inh CO (CO [4]; 2 h): 82%
- % inh CO (CO [4]; 4 h): 76%
- % inh CO (CO [4]; 8 h): 46%
- % inh CO (CO [4]; 24 h): 11%
